# Experiments:
# S. aureus LMG3242 = assay: AAMP assay (MIC), single components and formulation mixture; type: cell-based, Staphylococcus aureus; conditions: Staphylococcus aureus, LMG3242, 24 h; read-out: MIC, single component
# Summary of the method: (§1)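 Mix PenG (100 μg), GarKS (50 μg) and MP1 (2.5 μg) in a single well; test each component alone on the same plate; determine MIC by AAMP assay; derive FIC to assess three-way synergy.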
# S. aureus LMG3255 = assay: as above; type: cell-based, Staphylococcus aureus; conditions: Staphylococcus aureus, LMG3255, 24 h; read-out: MIC, single component
# Summary of the method: as §1
# S. aureus LMG3263 = assay: as above; type: cell-based, Staphylococcus aureus; conditions: Staphylococcus aureus, LMG3263, 24 h; read-out: MIC, single component
# Summary of the method: as §1
# S. aureus LMG3264 = assay: as above; type: cell-based, Staphylococcus aureus; conditions: Staphylococcus aureus, LMG3264, 24 h; read-out: MIC, single component
# Summary of the method: as §1
# S. aureus LMG3307 = assay: as above; type: cell-based, Staphylococcus aureus; conditions: Staphylococcus aureus, LMG3307, 24 h; read-out: MIC, single component
# Summary of the method: as §1
# S. haemolyticus 4068 = assay: microbe, parasite or virus in culture; conditions: for MIC of the component in combination: 4068
# Method: (§2) Growth inhibition assays were performed in 96-well microtiter plates as described previously (Chi and Holo, 2018, supra). Briefly, 135 μl of TSB were dispensed in each well of a microtiter plate (according to the number of bacterial strains tested) except in the wells of the first row. The antimicrobials were diluted in TSB to working concentrations in a final volume of 285 μl and dispensed in the wells of the first row. The working concentrations were 100 μg/μl for garvicin KS, 10 μg/μl for micrococcin P1 and 1 mg/ml for penicillin G. From the first row, 150 μl of the antimicrobials were then serially diluted (two-fold dilutions) in a sequential fashion until the last row of the plate. Finally, 15 μl of a fresh O/N culture of each strain were added in the appropriate wells to reach a final volume of 150 μl in each well. The plates were then incubated at 37° C. for 24 h. The growth inhibition was expressed as minimum inhibitory concentration (MIC50), which refers to the minimum concentration of the antimicrobial needed to reduce at least 50% of the microbial growth compared to the untreated control. The MIC50 was assessed by optical density readings at 600 nm (O.D.600).
# (§3) Synergistic interactions between antimicrobials were determined using the fractional inhibition concentration (FIC). The FIC values were calculated as follows: the sum of the FIC =FICa+FICb+FICc, where the FICa means MIC of A in combination/MIC of A alone, FICb means MIC of B in combination/MIC of B, and FICc means MIC of C in combination/MIC of C alone. Effects were considered as synergistic if FIC was ≤0.5 for two components mixture and ≤0.75 for three components mixture.
# (§4) Bacteriocins and antimicrobial assays. […] These bacteriocins were all solubilized in 0.1% (vol/vol) trifluoracetic acid (TFA; Sigma-Aldrich). […] Cell growth inhibition assays and antimicrobial synergy determination was performed in line with Example 1.
# (§5) To investigate whether there was synergy between the three bacteriocins (K1-EJ, GarKS and MP1), a checkboard antimicrobial assay was performed. The selected strains were treated for 5, 24 and 48 h with a range of concentrations of K1-EJ, GarKS and MP1 alone or in different combinations.
# S. haemolyticus 4069 = assay: microbe, parasite or virus in culture; conditions: for MIC of the component in combination: 4069
# Method: as §2, §3, §4, §5
# S. haemolyticus 4070 = assay: microbe, parasite or virus in culture; conditions: for MIC of the component in combination: 4070
# Method: as §2, §3, §4, §5
# S. haemolyticus 4072 = assay: microbe, parasite or virus in culture; conditions: for MIC of the component in combination: 4072
# Method: as §2, §3, §4, §5
# S. haemolyticus 4073 = assay: microbe, parasite or virus in culture; conditions: for MIC of the component in combination: 4073
# Method: as §2, §3, §4, §5
structure (smiles),measurement,setting,value
"C/C=C(\NC(=O)c1csc(-c2csc(-c3ccc4c(n3)-c3csc(n3)[C@H]([C@@H](C)O)NC(=O)c3csc(n3)[C@H](C(C)C)NC(=O)c3csc(n3)/C(=C/C)NC(=O)[C@H]([C@@H](C)O)NC(=O)c3csc-4n3)n2)n1)C(=O)NC[C@@H](C)O [MP1, micrococcin P1]",MIC,S. aureus LMG3242,0.4 µg/mL
same,MIC,S. aureus LMG3255,> 1.8 µg/mL
same,MIC,S. aureus LMG3263,1.8 µg/mL
same,MIC,S. aureus LMG3264,> 1.8 µg/mL
same,MIC,S. aureus LMG3307,0.9 µg/mL
same,MIC of the component in combination,"S. haemolyticus 4068; 5 h, GarKS + MP1",0.02 µg/mL
same,MIC of the component in combination,"S. haemolyticus 4068; 5 h, K1-EJ + GarKS + MP1",0.032 µg/mL
same,MIC of the component in combination,"S. haemolyticus 4068; 5 h, K1-EJ + MP1",0.02 µg/mL
same,MIC of the component in combination,"S. haemolyticus 4068; 24 h, GarKS + MP1",0.032 µg/mL
same,MIC of the component in combination,"S. haemolyticus 4068; 24 h, K1-EJ + GarKS + MP1",0.078 µg/mL
same,MIC of the component in combination,"S. haemolyticus 4068; 24 h, K1-EJ + MP1",0.078 µg/mL
same,MIC of the component in combination,"S. haemolyticus 4068; 48 h, GarKS + MP1",0.068 µg/mL
same,MIC of the component in combination,"S. haemolyticus 4068; 48 h, K1-EJ + GarKS + MP1",0.28 µg/mL
same,MIC of the component in combination,"S. haemolyticus 4068; 48 h, K1-EJ + MP1",0.072 µg/mL
same,MIC,"S. haemolyticus 4068; Staphylococcus haemolyticus, 4068, 5 h",0.02 µg/mL
same,MIC,"S. haemolyticus 4068; Staphylococcus haemolyticus, 4068, 24 h",0.023 µg/mL
same,MIC,"S. haemolyticus 4068; Staphylococcus haemolyticus, 4068, 48 h",0.078 µg/mL
same,MIC of the component in combination,"S. haemolyticus 4069; 5 h, GarKS + MP1",0.16 µg/mL
same,MIC of the component in combination,"S. haemolyticus 4069; 5 h, K1-EJ + GarKS + MP1",0.068 µg/mL
same,MIC of the component in combination,"S. haemolyticus 4069; 5 h, K1-EJ + MP1",0.15 µg/mL
same,MIC of the component in combination,"S. haemolyticus 4069; 24 h, GarKS + MP1",2.5 µg/mL
same,MIC of the component in combination,"S. haemolyticus 4069; 24 h, K1-EJ + GarKS + MP1",0.33 µg/mL
same,MIC of the component in combination,"S. haemolyticus 4069; 24 h, K1-EJ + MP1",2.3 µg/mL
same,MIC of the component in combination,"S. haemolyticus 4069; 48 h, GarKS + MP1",5 µg/mL
same,MIC of the component in combination,"S. haemolyticus 4069; 48 h, K1-EJ + GarKS + MP1",0.58 µg/mL
same,MIC of the component in combination,"S. haemolyticus 4069; 48 h, K1-EJ + MP1",4.8 µg/mL
same,MIC,"S. haemolyticus 4069; Staphylococcus haemolyticus, 4069, 5 h",0.15 µg/mL
same,MIC,"S. haemolyticus 4069; Staphylococcus haemolyticus, 4069, 24 h",> 10 µg/mL
same,MIC,"S. haemolyticus 4069; Staphylococcus haemolyticus, 4069, 48 h",> 10 µg/mL
same,MIC of the component in combination,"S. haemolyticus 4070; 5 h, GarKS + MP1",0.02 µg/mL
same,MIC of the component in combination,"S. haemolyticus 4070; 5 h, K1-EJ + GarKS + MP1",0.032 µg/mL
same,MIC of the component in combination,"S. haemolyticus 4070; 5 h, K1-EJ + MP1",0.02 µg/mL
same,MIC of the component in combination,"S. haemolyticus 4070; 24 h, GarKS + MP1",0.33 µg/mL
same,MIC of the component in combination,"S. haemolyticus 4070; 24 h, K1-EJ + GarKS + MP1",0.28 µg/mL
same,MIC of the component in combination,"S. haemolyticus 4070; 24 h, K1-EJ + MP1",0.28 µg/mL
same,MIC of the component in combination,"S. haemolyticus 4070; 48 h, GarKS + MP1",0.63 µg/mL
same,MIC of the component in combination,"S. haemolyticus 4070; 48 h, K1-EJ + GarKS + MP1",0.58 µg/mL
same,MIC of the component in combination,"S. haemolyticus 4070; 48 h, K1-EJ + MP1",0.6 µg/mL
same,MIC,"S. haemolyticus 4070; Staphylococcus haemolyticus, 4070, 5 h",0.02 µg/mL
same,MIC,"S. haemolyticus 4070; Staphylococcus haemolyticus, 4070, 24 h",0.33 µg/mL
same,MIC,"S. haemolyticus 4070; Staphylococcus haemolyticus, 4070, 48 h",0.13 µg/mL
same,MIC of the component in combination,"S. haemolyticus 4072; 5 h, GarKS + MP1",0.073 µg/mL
same,MIC of the component in combination,"S. haemolyticus 4072; 5 h, K1-EJ + GarKS + MP1",0.068 µg/mL
same,MIC of the component in combination,"S. haemolyticus 4072; 5 h, K1-EJ + MP1",0.036 µg/mL
same,MIC of the component in combination,"S. haemolyticus 4072; 24 h, GarKS + MP1",0.16 µg/mL
same,MIC of the component in combination,"S. haemolyticus 4072; 24 h, K1-EJ + GarKS + MP1",0.16 µg/mL
same,MIC of the component in combination,"S. haemolyticus 4072; 24 h, K1-EJ + MP1",0.15 µg/mL
same,MIC of the component in combination,"S. haemolyticus 4072; 48 h, GarKS + MP1",0.31 µg/mL
same,MIC of the component in combination,"S. haemolyticus 4072; 48 h, K1-EJ + GarKS + MP1",0.58 µg/mL
same,MIC of the component in combination,"S. haemolyticus 4072; 48 h, K1-EJ + MP1",0.16 µg/mL
same,MIC,"S. haemolyticus 4072; Staphylococcus haemolyticus, 4072, 5 h",0.039 µg/mL
same,MIC,"S. haemolyticus 4072; Staphylococcus haemolyticus, 4072, 24 h",> 10 µg/mL
same,MIC,"S. haemolyticus 4072; Staphylococcus haemolyticus, 4072, 48 h",0.63 µg/mL
same,MIC of the component in combination,"S. haemolyticus 4073; 5 h, GarKS + MP1",0.02 µg/mL
same,MIC of the component in combination,"S. haemolyticus 4073; 5 h, K1-EJ + GarKS + MP1",0.033 µg/mL
same,MIC of the component in combination,"S. haemolyticus 4073; 5 h, K1-EJ + MP1",0.02 µg/mL
same,MIC of the component in combination,"S. haemolyticus 4073; 24 h, GarKS + MP1",0.073 µg/mL
same,MIC of the component in combination,"S. haemolyticus 4073; 24 h, K1-EJ + GarKS + MP1",0.078 µg/mL
same,MIC of the component in combination,"S. haemolyticus 4073; 24 h, K1-EJ + MP1",0.036 µg/mL
same,MIC of the component in combination,"S. haemolyticus 4073; 48 h, GarKS + MP1",0.083 µg/mL
same,MIC of the component in combination,"S. haemolyticus 4073; 48 h, K1-EJ + GarKS + MP1",0.16 µg/mL
same,MIC of the component in combination,"S. haemolyticus 4073; 48 h, K1-EJ + MP1",0.01 µg/mL
same,MIC,"S. haemolyticus 4073; Staphylococcus haemolyticus, 4073, 5 h",0.022 µg/mL
same,MIC,"S. haemolyticus 4073; Staphylococcus haemolyticus, 4073, 24 h",0.072 µg/mL
same,MIC,"S. haemolyticus 4073; Staphylococcus haemolyticus, 4073, 48 h",0.14 µg/mL

# — patent US20240041976A1, “COMPOSITION AND USE” (priority 2020, published 2024)
